“Also recorded” adds a separate entry of the source.
Tested on: panel of 16 representative strains of different species of the genus Candida
Experiment: Antifungal activity (MIC80) against a panel of Candida strains, comparison
Format: cell-based
Conditions: azole-susceptible strains
Experimental: The antifungal activities of the 24 azole-COX inhibitor hybrids were evaluated against a panel of 16 representative strains of different species of the genus Candida. Candida species cause both superficial and systemic infections. The panel included strains of C. albicans, C. glabrata, C. parapsilosis, C. tropicalis, C. guilliermondii, C. dubliniensis, and C. auris (Table S2). To evaluate antifungal activity, the minimal inhibitory concentration 80% (MIC80) values were determined, which were defined as the lowest drug concentrations with turbidity (measured at OD600) less than or equal to that of specific 1:5 dilutions of the growth control. As controls, FLC and VOR, were tested.
MIC80 values were determined using the broth microdilution method over a concentration range of 0.003-64 μg/mL. Orange circles represent C. albicans strains, yellow circles represent C. glabrata strains, and green circles represent C. parapsilosis, C. tropicalis, C. dubliniensis and C. auris. Cells were grown in YPAD medium at 30° C. (For C. auris strains 37° C.) 24 h. Each concentration was tested in triplicate, and results were confirmed in at least two independent experiments.
C. albicans, C. glabrata, C. parapsilosis, C. guilliermondii, C. tropicalis, and C. dubliniensis MICs were determined using CLSI M27-A3 guidelines with minor modifications. Starter cultures were streaked from glycerol stock onto YPAD agar plates and grown for 24 h at 30° C. Colonies were suspended in 1 mL PBS and diluted to 1×10^−3 OD600 and then diluted 1:100 into fresh medium. Hybrids dissolved in DMSO were added to YPAD broth (32 μL stock solution in 1218 μL of YPAD broth), and serial double dilutions of hybrids in YPAD were prepared in flat-bottomed 96-well microplates (Corning) to enable testing of concentrations ranging from 64 μg/mL to 0.003 μg/mL. Control wells with yeast cells but no drug and blank wells containing only YPAD were prepared. An equal volume (100 μL) of yeast suspensions in YPAD broth was added to each well with the exceptions of the blank wells. MIC values (Tables S4-S6) were determined after 24 h at 30° C. by measuring the OD600 using a plate reader (Infinite M200 PRO, Tecan). MIC values were defined as the point at which the OD600 was reduced by >80% compared to the no-drug wells. Each concentration was tested in triplicate, and results were confirmed by two independent sets of experiments. FLC and VOR were used as control drugs.

SMILES | Antifungal potency (MIC80) in comparison with FLC, VOR or the corresponding stereoisomer
C[C@H](C(=O)NC[C@](O)(Cn1cncn1)c1ccc(F)cc1F)c1ccc(-c2ccccc2)c(F)c1 [Hybrid 5] | lowest MIC80 values against all of the azole-susceptible strains; also recorded: more potent than the corresponding R-configured ibuprofen hybrid 6
CC(C)Cc1ccc([C@H](C)C(=O)NC[C@](O)(Cn2cncn2)c2ccc(F)cc2F)cc1 [Hybrid 1] | lowest MIC80 values against all of the azole-susceptible strains; also recorded: up to two orders of magnitude more potent than FLC and was as potent as VOR
